The NIST ThermoML archive (doi:10.1016/j.jct.2015.09.020)

Experiment: mn = molality of the nth substance listed, in mol/kg
Conditions: 101.3 kPa, Liquid

NCCCC(=O)O [4-aminobutanoic acid] + O
Conditions | speed of sound [m/s]
278.15 K, Frequency=2 MHz, Linear variable-path acoustic interferometer, m1 = 0.0495 | 1431.4
278.15 K, Frequency=2 MHz, Linear variable-path acoustic interferometer, m1 = 0.0732 | 1433.1
278.15 K, Frequency=2 MHz, Linear variable-path acoustic interferometer, m1 = 0.0959 | 1435.4
278.15 K, Frequency=2 MHz, Linear variable-path acoustic interferometer, m1 = 0.1193 | 1436.9
278.15 K, Frequency=2 MHz, Linear variable-path acoustic interferometer, m1 = 0.1412 | 1439
278.15 K, Frequency=2 MHz, Linear variable-path acoustic interferometer, m1 = 0.1828 | 1442.1
278.15 K, Frequency=2 MHz, Linear variable-path acoustic interferometer, m1 = 0.2085 | 1444.1
278.15 K, Frequency=2 MHz, Linear variable-path acoustic interferometer, m1 = 0.2388 | 1446.9
278.15 K, Frequency=2 MHz, Linear variable-path acoustic interferometer, m1 = 0.2699 | 1449.7
278.15 K, Frequency=2 MHz, Linear variable-path acoustic interferometer, m1 = 0.2922 | 1452.3
278.15 K, Frequency=2 MHz, Linear variable-path acoustic interferometer, m1 = 0.3224 | 1455.4
278.15 K, Frequency=2 MHz, Linear variable-path acoustic interferometer, m1 = 0.3534 | 1457.4
288.15 K, Frequency=3 MHz, Sing-around technique in a fixed-path interferometer, m1 = 0.0554 | 1470.3
288.15 K, Frequency=3 MHz, Sing-around technique in a fixed-path interferometer, m1 = 0.0877 | 1472.6
288.15 K, Frequency=3 MHz, Sing-around technique in a fixed-path interferometer, m1 = 0.0989 | 1473.5
288.15 K, Frequency=3 MHz, Sing-around technique in a fixed-path interferometer, m1 = 0.1173 | 1474.9
288.15 K, Frequency=3 MHz, Sing-around technique in a fixed-path interferometer, m1 = 0.1538 | 1479
288.15 K, Frequency=3 MHz, Sing-around technique in a fixed-path interferometer, m1 = 0.1809 | 1481.1
288.15 K, Frequency=3 MHz, Sing-around technique in a fixed-path interferometer, m1 = 0.211 | 1483
288.15 K, Frequency=3 MHz, Sing-around technique in a fixed-path interferometer, m1 = 0.2389 | 1484.6
288.15 K, Frequency=3 MHz, Sing-around technique in a fixed-path interferometer, m1 = 0.2692 | 1486.5
288.15 K, Frequency=3 MHz, Sing-around technique in a fixed-path interferometer, m1 = 0.2861 | 1489.5
288.15 K, Frequency=3 MHz, Sing-around technique in a fixed-path interferometer, m1 = 0.3181 | 1492.3
288.15 K, Frequency=3 MHz, Sing-around technique in a fixed-path interferometer, m1 = 0.3496 | 1494.9
298.15 K, Frequency=3 MHz, Sing-around technique in a fixed-path interferometer, m1 = 0.0494 | 1501.1
298.15 K, Frequency=3 MHz, Sing-around technique in a fixed-path interferometer, m1 = 0.0781 | 1503.4
298.15 K, Frequency=3 MHz, Sing-around technique in a fixed-path interferometer, m1 = 0.1017 | 1505.1
298.15 K, Frequency=3 MHz, Sing-around technique in a fixed-path interferometer, m1 = 0.1227 | 1506.8
298.15 K, Frequency=3 MHz, Sing-around technique in a fixed-path interferometer, m1 = 0.1469 | 1508.9
298.15 K, Frequency=3 MHz, Sing-around technique in a fixed-path interferometer, m1 = 0.1846 | 1511.8
298.15 K, Frequency=3 MHz, Sing-around technique in a fixed-path interferometer, m1 = 0.1944 | 1512.8
298.15 K, Frequency=3 MHz, Sing-around technique in a fixed-path interferometer, m1 = 0.245 | 1516.7
298.15 K, Frequency=3 MHz, Sing-around technique in a fixed-path interferometer, m1 = 0.2746 | 1519.2
298.15 K, Frequency=3 MHz, Sing-around technique in a fixed-path interferometer, m1 = 0.2975 | 1521.1
298.15 K, Frequency=3 MHz, Sing-around technique in a fixed-path interferometer, m1 = 0.3196 | 1522.6
298.15 K, Frequency=3 MHz, Sing-around technique in a fixed-path interferometer, m1 = 0.3477 | 1525

Conditions | mass density [kg/m3]
278.15 K, Pycnometric method, m1 = 0.0495 | 1001.55
278.15 K, Pycnometric method, m1 = 0.0732 | 1002.25
278.15 K, Pycnometric method, m1 = 0.0959 | 1002.93
278.15 K, Pycnometric method, m1 = 0.1193 | 1003.65
278.15 K, Pycnometric method, m1 = 0.1412 | 1004.35
278.15 K, Pycnometric method, m1 = 0.1828 | 1005.72
278.15 K, Pycnometric method, m1 = 0.2085 | 1006.55
278.15 K, Pycnometric method, m1 = 0.2388 | 1007.5
278.15 K, Pycnometric method, m1 = 0.2699 | 1008.41
278.15 K, Pycnometric method, m1 = 0.2922 | 1009.03
278.15 K, Pycnometric method, m1 = 0.3224 | 1009.87
278.15 K, Pycnometric method, m1 = 0.3534 | 1010.83
288.15 K, Vibrating tube method, m1 = 0.0554 | 1000.83
288.15 K, Vibrating tube method, m1 = 0.0877 | 1001.66
288.15 K, Vibrating tube method, m1 = 0.0989 | 1002.15
288.15 K, Vibrating tube method, m1 = 0.1173 | 1002.71
288.15 K, Vibrating tube method, m1 = 0.1538 | 1003.54
288.15 K, Vibrating tube method, m1 = 0.1809 | 1004.28
288.15 K, Vibrating tube method, m1 = 0.211 | 1005.14
288.15 K, Vibrating tube method, m1 = 0.2389 | 1006.01
288.15 K, Vibrating tube method, m1 = 0.2692 | 1006.87
288.15 K, Vibrating tube method, m1 = 0.2861 | 1007.43
288.15 K, Vibrating tube method, m1 = 0.3181 | 1008.36
288.15 K, Vibrating tube method, m1 = 0.3496 | 1009.41
298.15 K, Vibrating tube method, m1 = 0.0494 | 998.48
298.15 K, Vibrating tube method, m1 = 0.0781 | 999.35
298.15 K, Vibrating tube method, m1 = 0.1017 | 1000.09
298.15 K, Vibrating tube method, m1 = 0.1227 | 1000.7
298.15 K, Vibrating tube method, m1 = 0.1469 | 1001.41
298.15 K, Vibrating tube method, m1 = 0.1846 | 1002.51
298.15 K, Vibrating tube method, m1 = 0.1944 | 1002.74
298.15 K, Vibrating tube method, m1 = 0.245 | 1004.3
298.15 K, Vibrating tube method, m1 = 0.2746 | 1004.99
298.15 K, Vibrating tube method, m1 = 0.2975 | 1005.61
298.15 K, Vibrating tube method, m1 = 0.3196 | 1006.38
298.15 K, Vibrating tube method, m1 = 0.3477 | 1007.09
